Reference: article PMC5840332, “Disease-associated missense mutations in GluN2B subunit alter NMDA receptor ligand binding and ion channel properties” (Nature Communications, 2018)
Blank lines part the entries; values can stand above or below the molecule they belong to.

Legend:
[1] = tested on: NMDAR-mediated EPSCs, hippocampal neurons; test: NMDAR-mediated EPSCs in cultured hippocampal neurons, pharmacological characterisation; assay type: cell-based, rat
Experimental: The impact of the GluN2B mutations was assessed on neuronal NMDARs by evoking network-driven NMDAR-mediated EPSCs in hippocampal neurons transfected with either wild-type or mutant GluN2B constructs. Hippocampal cultures were superfused with Krebs containing 10 μM CNQX and 20 μM bicuculline to block non-NMDA receptor and GABAA receptor-mediated currents, respectively. […] To obtain phase-locked EPSCs, a loose cell-attached patch electrode was used to serially stimulate presynaptic neurons yielding evoked EPSCs in postsynaptic neurons.
The relative contributions of GluN2A and GluN2B subunits to NMDAR-mediated currents (at 13–15 DIV) was assessed using the selective antagonists, TCN213 (30 μM, for GluN2A) and ifenprodil (3 μM, for GluN2B).
Dissected hippocampi were dissociated from E18 Sprague Dawley rat embryos using procedures and protocols that have been approved by the UK Home Office. They were dissociated into single cells using 0.1% w/v trypsin and serially triturated with flame-polished Pasteur pipettes. […] Neurons were transfected after 10 days in vitro (DIV) with either cDNAs for the GluN2B WT or mutants together with DsRed using Effectene (Qiagen) and recorded at 13–15 DIV.
(§1) Cells were voltage clamped at −60 mV.
NMDAR-mediated EPSCs were evoked by direct stimulation of single neighbouring neurons using a loose cell-attached patch electrode filled with Krebs and containing a bipolar stimulating electrode. […] For the pharmacological characterisation of NMDAR-mediated EPSCs, the selective antagonists ifenprodil (+)-hemitartrate (Santacruz biotechnology) and TCN213 (Tocris) were used.
EPSCs were analysed offline using WinWCP (Strathclyde Electrophysiology Software, UK). Peak EPSC amplitude, the area of the EPSC (charge transfer) and EPSC decays were measured. The decay time constants (τ) were determined by fitting the EPSC decays with a double exponential function. The weighted time constant (τw) was calculated using the following equation, where A indicates the relative area of each time constant.3 τw=((A1.τ1)+(A2.τ2))∕A1+A2.

GluN1–GluN2B^V618G = GluN1–GluN2B^V618G (Homo sapiens, UniProt Q05586+Q13224, V618G); test: Ion permeability experiments in Mg2+ or Ca2+ solution, HEK293 cells; assay type: cell-based; parameters: expressed in transfected cells; host or cells: HEK293; conditions: −60 mV
From the text: (§2) To assess Mg^2+ permeability the external solution was altered such that Mg^2+ was the only current-carrying cation (Mg^2+ solution). […] The same result was apparent for GluN1–GluN2B^N615I (Fig. 4a; Table 1). […] To assess whether the channel mutants affected Ca^2+ permeation, we modified the external solution to make Ca^2+ the only current-carrying cation[24] (Ca^2+ solution). […] This implied a significant reduction in Ca^2+ permeation for GluN2B^N615I.
as §1

GluN1–GluN2B^N615I = GluN1–GluN2B^N615I (Homo sapiens, UniProt Q05586+Q13224, N615I); test: as above; assay type: cell-based; parameters: expressed in transfected cells; host or cells: HEK293; conditions: −60 mV
From the text: as §2, §1

GluN1–GluN2B^WT = GluN1–GluN2B^WT (Homo sapiens, UniProt Q05586+Q13224); test: as above; assay type: cell-based; parameters: expressed in transfected cells; host or cells: HEK293; conditions: −60 mV
From the text: as §2, §1

[2] = Ca^2+ solution (100 mM), 10 μM glutamate and 10 μM glycine
[3] = current in Ca^2+ solution as % of current in Krebs
[4] = 3 μM ifenprodil, 13–15 DIV untransfected neurons

GluN1–GluN2B^N615I, sequence (Q13224 27-1484 N615I, other chains not shown): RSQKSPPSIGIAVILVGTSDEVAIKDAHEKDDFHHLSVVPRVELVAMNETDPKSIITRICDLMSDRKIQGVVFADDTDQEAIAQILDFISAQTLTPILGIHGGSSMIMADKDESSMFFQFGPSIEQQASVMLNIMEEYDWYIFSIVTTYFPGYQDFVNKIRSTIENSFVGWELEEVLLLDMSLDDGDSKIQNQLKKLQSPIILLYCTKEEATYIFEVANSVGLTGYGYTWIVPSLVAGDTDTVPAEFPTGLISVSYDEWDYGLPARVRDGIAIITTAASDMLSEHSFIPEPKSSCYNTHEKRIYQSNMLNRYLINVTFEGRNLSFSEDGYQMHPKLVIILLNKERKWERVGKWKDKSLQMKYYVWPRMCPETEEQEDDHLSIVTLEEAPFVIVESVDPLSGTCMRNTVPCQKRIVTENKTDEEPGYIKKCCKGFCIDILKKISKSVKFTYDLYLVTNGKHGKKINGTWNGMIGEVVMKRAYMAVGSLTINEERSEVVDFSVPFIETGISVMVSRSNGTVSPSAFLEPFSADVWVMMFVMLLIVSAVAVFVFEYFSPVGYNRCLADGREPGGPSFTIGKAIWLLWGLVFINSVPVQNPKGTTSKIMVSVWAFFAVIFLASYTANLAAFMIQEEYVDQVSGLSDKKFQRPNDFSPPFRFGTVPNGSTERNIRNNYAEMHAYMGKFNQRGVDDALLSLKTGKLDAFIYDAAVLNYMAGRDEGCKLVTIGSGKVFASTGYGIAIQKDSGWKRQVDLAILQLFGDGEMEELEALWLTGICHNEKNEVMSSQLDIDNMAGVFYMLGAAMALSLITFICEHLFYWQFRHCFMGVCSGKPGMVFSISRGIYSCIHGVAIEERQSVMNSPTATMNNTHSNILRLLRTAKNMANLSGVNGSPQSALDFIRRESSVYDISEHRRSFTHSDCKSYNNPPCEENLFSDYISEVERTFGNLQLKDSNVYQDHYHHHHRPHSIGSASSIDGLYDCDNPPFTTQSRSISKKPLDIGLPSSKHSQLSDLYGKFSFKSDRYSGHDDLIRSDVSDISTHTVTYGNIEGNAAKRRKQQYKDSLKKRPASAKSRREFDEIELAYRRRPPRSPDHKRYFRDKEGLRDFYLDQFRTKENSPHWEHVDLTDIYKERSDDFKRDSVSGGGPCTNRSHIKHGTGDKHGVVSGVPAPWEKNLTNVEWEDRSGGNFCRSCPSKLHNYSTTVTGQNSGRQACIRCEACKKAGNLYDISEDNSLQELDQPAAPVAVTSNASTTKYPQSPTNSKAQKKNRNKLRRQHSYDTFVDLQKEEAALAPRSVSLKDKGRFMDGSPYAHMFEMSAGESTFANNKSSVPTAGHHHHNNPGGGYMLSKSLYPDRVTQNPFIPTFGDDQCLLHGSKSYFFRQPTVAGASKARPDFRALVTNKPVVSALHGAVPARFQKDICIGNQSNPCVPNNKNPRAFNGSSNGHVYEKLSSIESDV
GluN1–GluN2B^V618G, sequence (Q13224 27-1484 V618G, other chains not shown): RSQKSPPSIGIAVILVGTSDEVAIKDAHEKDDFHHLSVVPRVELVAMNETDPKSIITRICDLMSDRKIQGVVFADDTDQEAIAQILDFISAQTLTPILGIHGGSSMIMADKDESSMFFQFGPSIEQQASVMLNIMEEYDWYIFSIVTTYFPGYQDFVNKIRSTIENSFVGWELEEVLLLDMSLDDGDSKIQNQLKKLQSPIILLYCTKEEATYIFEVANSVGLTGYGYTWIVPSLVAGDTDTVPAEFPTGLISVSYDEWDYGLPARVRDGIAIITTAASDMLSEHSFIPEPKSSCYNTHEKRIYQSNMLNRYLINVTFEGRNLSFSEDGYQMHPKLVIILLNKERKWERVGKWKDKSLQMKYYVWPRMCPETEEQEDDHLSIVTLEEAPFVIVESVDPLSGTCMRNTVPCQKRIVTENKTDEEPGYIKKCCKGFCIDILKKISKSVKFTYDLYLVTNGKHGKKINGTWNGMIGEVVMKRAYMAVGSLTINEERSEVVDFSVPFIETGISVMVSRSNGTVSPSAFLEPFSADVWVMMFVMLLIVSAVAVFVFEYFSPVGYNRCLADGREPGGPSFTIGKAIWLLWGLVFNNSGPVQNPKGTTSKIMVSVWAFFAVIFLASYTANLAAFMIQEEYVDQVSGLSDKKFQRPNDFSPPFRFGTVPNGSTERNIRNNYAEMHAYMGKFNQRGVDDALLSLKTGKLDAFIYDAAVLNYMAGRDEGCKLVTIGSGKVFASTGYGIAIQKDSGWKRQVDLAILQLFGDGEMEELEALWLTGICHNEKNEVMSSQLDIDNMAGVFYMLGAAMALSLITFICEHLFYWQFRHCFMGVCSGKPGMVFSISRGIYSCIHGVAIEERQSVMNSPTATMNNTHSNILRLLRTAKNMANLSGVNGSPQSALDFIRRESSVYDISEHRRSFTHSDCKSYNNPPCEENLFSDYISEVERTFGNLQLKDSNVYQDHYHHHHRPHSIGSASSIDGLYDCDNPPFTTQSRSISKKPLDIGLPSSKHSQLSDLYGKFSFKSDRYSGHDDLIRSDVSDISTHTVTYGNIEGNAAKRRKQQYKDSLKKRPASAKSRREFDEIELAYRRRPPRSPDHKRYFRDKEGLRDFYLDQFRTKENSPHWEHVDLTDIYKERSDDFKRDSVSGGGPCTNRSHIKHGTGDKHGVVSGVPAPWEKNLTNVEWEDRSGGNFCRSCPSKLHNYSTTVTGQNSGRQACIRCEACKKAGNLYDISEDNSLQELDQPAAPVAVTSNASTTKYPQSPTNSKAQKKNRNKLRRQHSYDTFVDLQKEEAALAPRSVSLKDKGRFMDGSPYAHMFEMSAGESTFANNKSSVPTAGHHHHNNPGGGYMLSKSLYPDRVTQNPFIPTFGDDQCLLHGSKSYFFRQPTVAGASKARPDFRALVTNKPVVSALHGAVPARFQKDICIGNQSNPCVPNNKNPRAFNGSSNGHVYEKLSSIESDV
GluN1–GluN2B^WT, sequence (Q13224 27-1484, other chains not shown): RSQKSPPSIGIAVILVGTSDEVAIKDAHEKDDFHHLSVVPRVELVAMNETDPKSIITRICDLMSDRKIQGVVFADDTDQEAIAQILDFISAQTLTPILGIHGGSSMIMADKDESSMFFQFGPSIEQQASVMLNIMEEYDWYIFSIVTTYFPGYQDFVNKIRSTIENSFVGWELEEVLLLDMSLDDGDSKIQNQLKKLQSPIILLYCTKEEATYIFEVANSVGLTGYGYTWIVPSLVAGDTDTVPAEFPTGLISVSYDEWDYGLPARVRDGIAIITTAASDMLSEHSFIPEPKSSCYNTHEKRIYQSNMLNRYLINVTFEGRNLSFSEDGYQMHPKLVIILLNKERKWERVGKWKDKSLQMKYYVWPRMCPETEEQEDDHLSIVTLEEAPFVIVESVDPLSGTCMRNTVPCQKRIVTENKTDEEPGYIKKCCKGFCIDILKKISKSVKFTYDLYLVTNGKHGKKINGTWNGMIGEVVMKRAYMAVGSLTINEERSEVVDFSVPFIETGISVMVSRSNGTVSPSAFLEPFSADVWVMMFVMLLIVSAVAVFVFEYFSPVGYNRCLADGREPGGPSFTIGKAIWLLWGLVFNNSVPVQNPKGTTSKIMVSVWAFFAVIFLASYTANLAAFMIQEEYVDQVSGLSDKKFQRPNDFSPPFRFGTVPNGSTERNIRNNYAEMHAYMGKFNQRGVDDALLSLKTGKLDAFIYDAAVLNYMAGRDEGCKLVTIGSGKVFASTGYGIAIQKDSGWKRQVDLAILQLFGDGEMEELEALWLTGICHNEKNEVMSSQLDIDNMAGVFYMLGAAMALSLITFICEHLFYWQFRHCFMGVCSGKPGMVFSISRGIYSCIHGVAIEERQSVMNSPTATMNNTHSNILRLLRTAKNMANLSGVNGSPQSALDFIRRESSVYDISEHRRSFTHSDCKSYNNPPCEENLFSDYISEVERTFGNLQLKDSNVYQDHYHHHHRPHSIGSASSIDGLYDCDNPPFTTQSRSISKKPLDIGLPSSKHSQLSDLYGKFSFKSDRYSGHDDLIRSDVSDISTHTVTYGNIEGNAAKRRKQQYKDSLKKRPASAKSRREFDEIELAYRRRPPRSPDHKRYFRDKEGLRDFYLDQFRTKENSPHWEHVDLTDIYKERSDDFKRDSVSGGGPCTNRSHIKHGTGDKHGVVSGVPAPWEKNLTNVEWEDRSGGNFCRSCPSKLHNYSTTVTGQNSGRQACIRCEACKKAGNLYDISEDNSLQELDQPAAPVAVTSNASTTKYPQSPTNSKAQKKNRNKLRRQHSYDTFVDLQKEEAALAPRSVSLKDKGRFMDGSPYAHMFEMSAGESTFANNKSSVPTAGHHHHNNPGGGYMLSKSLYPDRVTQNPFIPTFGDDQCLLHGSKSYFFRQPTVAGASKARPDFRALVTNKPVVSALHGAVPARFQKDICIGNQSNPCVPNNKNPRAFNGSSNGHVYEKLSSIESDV

SMILES: N[C@@H](CCCP(=O)(O)O)C(=O)O [APV]
Effect on spontaneous/evoked EPSCs ([1]; 20 μM APV, 0 Mg^2+, 10 μM CNQX, 20 μM bicuculline): blocked

ICa current density (GluN1–GluN2B^V618G; [2]): −5.00 ± 0.64 pA/pF
ICa current density (GluN1–GluN2B^N615I; [2]): −0.47 ± 0.10 pA/pF
ICa current density (GluN1–GluN2B^WT; [2]): −7.08 ± 2.12 pA/pF
SMILES: [Ca+2] [Ca^2+]
ICa/IKrebs (GluN1–GluN2B^V618G; [3]): 46.28 ± 3.18%
ICa/IKrebs (GluN1–GluN2B^N615I; [3]): 11.07 ± 1.04%
ICa/IKrebs (GluN1–GluN2B^WT; [3]): 52.83 ± 1.07%

SMILES: CC(C(O)c1ccc(O)cc1)N1CCC(Cc2ccccc2)CC1 (stereo not drawn) [Ifenprodil, ifenprodil (+)-hemitartrate]
Decrease of EPSC decay time [1, 4]: 30%
Effect on peak EPSC amplitude [1, 4]: reduced the peak EPSC amplitude
